The text below walks through data of PubChem BioAssay (NCI).

Holding throughout (experiment): growth of human tumour cells (NCI), 48 h
Test [1] has as its system SF-268 CNS.
Test [2] concerns DMS 114 small cell lung.
Test [3] deals with KM20L2 colon.
Test [4] has as its system HCT-15 colon.
Test [5] deals with SF-539 CNS.
Test [6] deals with CCRF-CEM leukemia.
Test [7] concerns SNB-78 CNS.
Test [8] deals with DLD-1 colon.
Test [9] has as its system UACC-257 melanoma.
The subject of test [10] is DMS 273 small cell lung.
Test [11] concerns 786-0 renal.
The test system of test [12] is XF 498 CNS.
The test system of test [13] is M19-MEL melanoma.
Test [14] relates to HCC-2998 colon.
Test [15] deals with DU-145 prostate.

Structures are written as SMILES.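 Values below derive from 48-hour exposures of cells grown in 96-well plates, with endpoints linearly interpolated between the two concentrations bracketing the appropriate inhibition level. Definition used: TGI = concentration required for complete inhibition of growth.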

On to `CCOC(=O)C1Cc2[nH]c3ccccc3c2C(C)C1C` (configuration not stated), for which the TGI in [1] was found to be 47.5 µM; in test [2], 58.5 µM; in test [3], 31.8 µM; in [4] it was 32.1 µM; in [5], 31.4 µM; in [6] it was 57.4 µM. The TGI in test [7] is 62.4 µM; in test [8], 34.5 µM; in [9], 32.3 µM; in [10] it was 30.4 µM; in test [11], 28.2 µM; in [12] it was 37.9 µM.

Take `COc1ccc(C(C#N)NNC(=O)c2ccccc2O)cc1OC` (configuration not stated): the TGI in test [1] was over 100 µM; in [2], 12.7 µM; in test [3], 62.5 µM; in [4] it was over 100 µM; in [5], 6.81 µM; in test [6], over 100 µM. Moreover, the TGI in test [7] is over 100 µM; in [8], over 100 µM; in [9], over 100 µM; in [10] it was 47.2 µM; in test [13], over 100 µM; in test [11], over 100 µM.

In the case of `COC(=O)C(CCC#N)(CCC#N)C(=O)OC`, the TGI in [1], in [2], in test [3], in test [4], in test [5] and in test [6] was over 100 µM in each case. Further, the TGI in test [14], in test [9], in test [10], in test [13], in [11] and in test [12] was over 100 µM throughout.

In the case of `COc1cc(/C=C2/C(=O)N(C(=O)c3ccccc3O)N=C2C)cc(OC)c1OC`, the TGI in [1] is over 100 µM; in test [2], 21.7 µM; in test [3], over 100 µM; in [4], over 100 µM; in test [5] it was 6.39 µM; in [6] it was over 100 µM. In addition, the TGI in test [14] is over 87.8 µM; in test [7] it was over 100 µM; in test [8], over 100 µM; in test [9], over 100 µM; in test [13] it was over 100 µM; in test [11] it was over 100 µM. The TGI in test [12] and in test [15] was over 100 µM throughout.

With `c1ccc(C2C3=C(Nc4ncnn42)c2ccccc2C3)cc1` (configuration not stated), the TGI in [1] was over 100 µM; in [2] it was 24.1 µM; in test [3] it was 24.5 µM; in test [4], over 100 µM; in [5], 34.2 µM; in test [6] it was over 100 µM. The TGI is over 100 µM in test [14]; over 100 µM in [7]; 38 µM in [8]; over 100 µM in [9]; over 100 µM in test [10]; over 100 µM in [13]. The TGI was 78.2 µM in test [11] and over 100 µM in test [12].

As for `O=c1[nH]n2c(=O)cc[nH]c2c1-c1nnns1`, the TGI in [1], in [2], in test [3], in test [4], in [5] and in [6] was over 100 µM in each case. The TGI in [14], in test [7], in [8], in test [10], in test [13] and in test [11] was over 100 µM each time. The TGI in test [12] is over 100 µM.

With `COc1ccc(C2Oc3c(cc(O)c(OC)c3C)[C@@H]2C)cc1OC` (some centres not stated), the TGI in test [1], in test [2], in test [3], in test [5], in test [6] and in [14] was over 100 µM throughout. Moreover, the TGI in test [7], in [8], in [9], in [10], in [13] and in test [11] was over 100 µM each time. In test [12], the TGI is over 100 µM.

As to `Cn1cc2ccccc2c1-c1nc(N)nc(F)n1`, the TGI in [1], in test [2], in test [3], in test [4], in [5] and in test [6] was over 100 µM each time. For the same compound, the TGI in test [14], in test [7], in [8], in test [9], in [10] and in test [13] was over 100 µM throughout. The TGI in test [11] and in [12] was over 100 µM each time.

As for `COC(=O)CC(C(C(=O)OC)C(=O)OC)N1C(=O)OCC1c1ccccc1` (configuration not stated), the TGI in test [1], in [3], in [4], in [5], in test [6] and in test [14] was over 100 µM each time. Further, the TGI in test [8], in [9], in [10], in [13], in [11] and in test [12] was over 100 µM each time.

Regarding `Cc1cc(N(CCC#N)CCC#N)ccc1/C=N/NC(=O)c1cc(Cl)ccc1O`, the TGI in [1], in test [4], in test [5], in [6], in [14] and in [9] was over 100 µM throughout. The TGI in [11] and in [15] was over 100 µM each time.

In the case of `COc1ccc(C2CC(c3c(O)ccc4ccccc34)=NN2c2ccc([N+](=O)[O-])cc2[N+](=O)[O-])cc1OC` (configuration not stated), the TGI in test [1] was over 100 µM; in test [4], over 100 µM; in test [5], over 79.8 µM; in [6] it was over 50.3 µM; in test [14], over 100 µM; in [9], over 93.9 µM. For the same compound, the TGI in [11] and in [15] was over 100 µM each time.

As to `COc1ccccc1Nc1nc(N)nc(N)c1N=O`, the TGI in test [1], in [4], in test [5], in test [6], in [14] and in test [9] was over 100 µM each time. The TGI in [11] and in test [15] was over 100 µM each time.

As to `Cc1c(-c2nc3ccccc3[nH]2)c(=O)n(-c2ccccc2)n1C`, the TGI in test [1], in test [4], in [5], in [6], in test [14] and in test [9] was over 100 µM in each case. The TGI in test [11] and in test [15] was over 100 µM each time.

As for `C=C1CC(COc2cc(=O)oc3ccccc23)(c2ccccc2)OC1=O` (configuration not stated), the TGI was determined as 29.7 µM in test [1]; 3.78 µM in test [4]; 7.69 µM in [5]; 2.26 µM in test [6]; 4.21 µM in test [14]; 6.65 µM in test [9]. The TGI in test [11] worked out at 2.96 µM; in test [15], 5.74 µM.

With `CCCCN1C(=O)CC2[C@@H]3CCc4cc(OC(C)=O)ccc4C3CC[C@]2(C)C1=O` (some centres not stated), the TGI in test [1], in [4], in test [5], in [6], in [14] and in test [9] was over 10 µM each time. In addition, the TGI in test [11] and in test [15] was over 10 µM throughout.

In the case of `O=c1nc(N2CCN(c3ccccc3)CC2)ccn1C1OC(CO)C(O)C1O` (configuration not stated), the TGI in [1], in test [4], in [5], in [6], in [14] and in test [9] was over 100 µM in each case. Moreover, the TGI in [11] and in test [15] was over 100 µM throughout.
